Patent US20200362302A1, “METHOD FOR PRODUCING CELL” (FUJIFILM Corporation, priority 2018, published 2020)

Test system: human iPS cells
Test: treatment efficiency by flow cytometry (positive percentage of CD75)
Format: cell-based
Experimental: The culture and the treatment were performed in the same manner as in Example 1 except that the treatment was performed under conditions in which a concentration of PD0325901 was 0.3 to 1.0 μmol/L, and subculture was performed for about 2 weeks after day 9. The completion of the treatment in Example 1 was evaluated by a positive percentage of a cell surface marker CD75. The cultured human iPS cells were detached with TrypLE™ Select, and stained with Alexa Fluor 647 Mouse Anti-Human CD75 antibody. A positive percentage of CD75 was analyzed by a flow cytometer Attune NxT.

O=C(NOC[C@H](O)CO)c1ccc(F)c(F)c1Nc1ccc(I)cc1F [PD0325901, N-[(2R)-2,3-dihydroxypropoxy]-3,4-difluoro-2-[(2-fluoro-4-iodophenyl)amino]-benzamide]
CD75 (any of the cell lines, PD0325901 within the range of 0.3 to 0.5 μmol/L): not positive
positive percentage of CD75 (three lines of human iPS cells, PD0325901 at 0.3 to 1.0 μmol/L): increase in positive percentage of CD75
